Assay results taken from patent US11434221B2, “Pyrazine-4-carbamate or -urea derivatives as herbicides” (Syngenta Participations AG, priority 2017, dated 2022).

Tests used:
Assay type in all cases: in vivo
Parameters in all cases: key: 5=total damage to plant; 0=no damage to plant
Lolium perenne (LOLPE) [1] = assay: Pre-emergence herbicidal activity, glasshouse pot test; conditions: Rate 1000 g/ha; sprayed one day after sowing; evaluated after 13 days
Method: (§1) Seeds of a variety of test species were sown in standard soil in pots: Triticum aestivium (TRZAW), Avena fatua (AVEFA), Alopecurus myosuroides (ALOMY), Echinochloa crus-galli (ECHCG), Lolium perenne (LOLPE), and Setaria faberi (SETFA). After cultivation for one day (pre-emergence) under controlled conditions in a glasshouse (at 24/16° C., day/night; 14 hours light; 65% humidity), the plants were sprayed with an aqueous spray solution derived from the formulation of the technical active ingredient in acetone/water (50:50) solution containing 0.5% Tween 20 (polyoxyethelyene sorbitan monolaurate, CAS RN 9005-64-5). The test plants were then grown in a glasshouse under controlled conditions (at 24/16° C., day/night; 14 hours light; 65% humidity) and watered twice daily. After 13 days, the test was evaluated (5=total damage to plant; 0=no damage to plant).

Setaria faberi (SETFA) [2] = assay: as above; conditions: Rate 1000 g/ha; sprayed one day after sowing; evaluated after 13 days
Method: as §1

[3] = system: Echinochloa crus-galli (ECHCG); assay: as above; conditions: Rate 1000 g/ha; sprayed one day after sowing; evaluated after 13 days
Method: as §1

[4] = system: Alopecurus myosuroides (ALOMY); assay: as above; conditions: Rate 1000 g/ha; sprayed one day after sowing; evaluated after 13 days
Method: as §1

[5] = system: Triticum aestivium (TRZAW); assay: as above; conditions: Rate 1000 g/ha; sprayed one day after sowing; evaluated after 13 days
Method: as §1

Avena fatua (AVEFA) [6] = assay: as above; conditions: Rate 1000 g/ha; sprayed one day after sowing; evaluated after 13 days
Method: as §1

Lolium perenne (LOLPE) [7] = assay: Post-emergence herbicidal activity, glasshouse pot test; conditions: Rate 1000 g/ha; sprayed after 8 days cultivation; evaluated after 13 days
Method: (§2) Seeds of a variety of test species were sown in standard soil in pots: Triticum aestivium (TRZAW), Avena fatua (AVEFA), Alopecurus myosuroides (ALOMY), Echinochloa crus-galli (ECHCG), Lolium perenne (LOLPE), and Setaria faberi (SETFA). After 8 days cultivation (post-emergence) under controlled conditions in a glasshouse (at 24/16° C., day/night; 14 hours light; 65% humidity), the plants were sprayed with an aqueous spray solution derived from the formulation of the technical active ingredient in acetone/water (50:50) solution containing 0.5% Tween 20 (polyoxyethelyene sorbitan monolaurate, CAS RN 9005-64-5). The test plants were then grown in a glasshouse under controlled conditions (at 24/16° C., day/night; 14 hours light; 65% humidity) and watered twice daily. After 13 days, the test was evaluated (5=total damage to plant; 0=no damage to plant).

Setaria faberi (SETFA) [8] = assay: as above; conditions: Rate 1000 g/ha; sprayed after 8 days cultivation; evaluated after 13 days
Method: as §2

[9] = system: Echinochloa crus-galli (ECHCG); assay: as above; conditions: Rate 1000 g/ha; sprayed after 8 days cultivation; evaluated after 13 days
Method: as §2

[10] = system: Alopecurus myosuroides (ALOMY); assay: as above; conditions: Rate 1000 g/ha; sprayed after 8 days cultivation; evaluated after 13 days
Method: as §2

[11] = system: Triticum aestivium (TRZAW); assay: as above; conditions: Rate 1000 g/ha; sprayed after 8 days cultivation; evaluated after 13 days
Method: as §2

Avena fatua (AVEFA) [12] = assay: as above; conditions: Rate 1000 g/ha; sprayed after 8 days cultivation; evaluated after 13 days
Method: as §2

Compound | Control of weed species after pre-emergence application, LOLPE (damage score 0-5) (Lolium perenne (LOLPE) [1]) | Control of weed species after pre-emergence application, SETFA (damage score 0-5) (Setaria faberi (SETFA) [2]) | Control of weed species after pre-emergence application, ECHCG (damage score 0-5) [3] | Control of weed species after pre-emergence application, ALOMY (damage score 0-5) [4] | Control of weed species after pre-emergence application, TRAZW (damage score 0-5) [5] | Control of weed species after pre-emergence application, AVEFA (damage score 0-5) (Avena fatua (AVEFA) [6]) | Control of weed species after post-emergence application, LOLPE (damage score 0-5) (Lolium perenne (LOLPE) [7]) | Control of weed species after post-emergence application, SETFA (damage score 0-5) (Setaria faberi (SETFA) [8]) | Control of weed species after post-emergence application, ECHCG (damage score 0-5) [9] | Control of weed species after post-emergence application, ALOMY (damage score 0-5) [10] | Control of weed species after post-emergence application, TRAZW (damage score 0-5) [11] | Control of weed species after post-emergence application, AVEFA (damage score 0-5) (Avena fatua (AVEFA) [12])
CC(C)=Cc1nc(-c2cncc(F)c2)cnc1N(C(=O)OC(C)(C)C)C(=O)OC(C)(C)C [Compound H14] | 2 | 3 | 2 | 0 | 0 | 0 | 1 | 4 | 2 | 0 | 0 | 1
COc1nc(-c2cncc(F)c2)cnc1N(C(=O)OC(C)(C)C)C(=O)OC(C)(C)C [Compound H6] | 0 | 4 | 3 | 0 | 1 | 1 | 1 | 4 | 3 | 0 | 1 | 2
CC(C)(C)OC(=O)N(C(=O)OC(C)(C)C)c1ncc(-c2cncnc2)nc1C(F)F [Compound H31] | 0 | 2 | 2 | 2 | 0 | 1 | 2 | 5 | 5 | 1 | 1 | 3
CC(C)(C)OC(=O)Nc1ncc(-c2cncc(F)c2)nc1CO [Compound H22] | 0 | 0 | 0 | 0 | 0 | 0 | 1 | 2 | 1 | 0 | 0 | 1
CC(C)(C)OC(=O)OCc1nc(-c2cncc(F)c2)cnc1N(C(=O)OC(C)(C)C)C(=O)OC(C)(C)C [Compound H18] | 1 | 4 | 3 | 0 | 0 | 0 | 1 | 3 | 4 | 0 | 0 | 1
